Laboratory results from ChEMBL document CHEMBL3132769, “Fragment growing to retain or alter the selectivity of anchored kinase hinge-binding fragments” (Medchemcomm, 2014).

Assays:
[1] = target: Fibroblast growth factor receptor 4 (Homo sapiens) (UniProt P22455); experiment: Inhibition of human FGFR4 catalytic domain expressed in baculovirus assessed as substrate phosphorylation using fluorescence-labelled peptides as substrate at 8 uM after 90 mins by microfluidic peptide phosphorylation assay
[2] = tested on: Tyrosine-protein kinase ABL1 (Homo sapiens), P00519 [Q252H]; experiment: Inhibition of human truncated ABL Q252H mutant expressed in baculovirus assessed as substrate phosphorylation using fluorescence-labelled peptides as substrate at 8 uM after 90 mins by microfluidic peptide phosphorylation assay
[3] = target: Vascular endothelial growth factor receptor 2 (Homo sapiens) (UniProt P35968); experiment: Inhibition of human KDR cytoplasmic domain expressed in baculovirus assessed as substrate phosphorylation using fluorescence-labelled peptides as substrate at 2 uM after 90 mins by microfluidic peptide phosphorylation assay
[4] = target: Tyrosine-protein kinase Lyn (Homo sapiens) (UniProt P07948); experiment: Inhibition of human full length LYN expressed in baculovirus assessed as substrate phosphorylation using fluorescence-labelled peptides as substrate at 1000 uM after 90 mins by microfluidic peptide phosphorylation assay
[5] = target: Ribosomal protein S6 kinase alpha-3 (Homo sapiens) (UniProt P51812); experiment: Inhibition of human full length RSK2 expressed in baculovirus assessed as substrate phosphorylation using fluorescence-labelled peptides as substrate at 0.06 uM after 90 mins by microfluidic peptide phosphorylation assay
[6] = target: Protein kinase C theta type (Homo sapiens) (UniProt Q04759); experiment: Inhibition of human truncated PKC theta expressed in baculovirus assessed as substrate phosphorylation using fluorescence-labelled peptides as substrate at 0.06 uM after 90 mins by microfluidic peptide phosphorylation assay
[7] = target: T1, Serine/threonine-protein kinase Nek2 (Homo sapiens) (UniProt P51955); experiment: Inhibition of human full length NEK2 expressed in baculovirus assessed as substrate phosphorylation using fluorescence-labelled peptides as substrate at 0.1 uM after 90 mins by microfluidic peptide phosphorylation assay
T1 sequence (whole entry): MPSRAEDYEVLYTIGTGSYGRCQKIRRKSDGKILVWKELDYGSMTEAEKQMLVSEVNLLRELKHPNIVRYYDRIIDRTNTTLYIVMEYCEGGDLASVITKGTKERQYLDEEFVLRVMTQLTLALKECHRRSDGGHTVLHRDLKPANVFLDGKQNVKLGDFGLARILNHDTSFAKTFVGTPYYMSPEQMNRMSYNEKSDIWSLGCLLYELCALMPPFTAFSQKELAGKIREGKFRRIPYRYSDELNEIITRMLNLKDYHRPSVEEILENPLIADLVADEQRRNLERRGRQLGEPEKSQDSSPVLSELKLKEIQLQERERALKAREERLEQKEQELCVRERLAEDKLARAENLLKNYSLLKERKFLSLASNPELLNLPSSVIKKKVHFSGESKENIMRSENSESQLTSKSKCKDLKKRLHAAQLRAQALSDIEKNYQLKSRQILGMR

[8] = tested on: T2, Receptor-type tyrosine-protein kinase FLT3 (Homo sapiens), P36888 [D835Y]; experiment: Inhibition of human FLT3 D835Y mutant catalytic domain expressed in baculovirus assessed as substrate phosphorylation using fluorescence-labelled peptides as substrate at 0.1 uM after 90 mins by microfluidic peptide phosphorylation assay
T2 sequence (whole entry): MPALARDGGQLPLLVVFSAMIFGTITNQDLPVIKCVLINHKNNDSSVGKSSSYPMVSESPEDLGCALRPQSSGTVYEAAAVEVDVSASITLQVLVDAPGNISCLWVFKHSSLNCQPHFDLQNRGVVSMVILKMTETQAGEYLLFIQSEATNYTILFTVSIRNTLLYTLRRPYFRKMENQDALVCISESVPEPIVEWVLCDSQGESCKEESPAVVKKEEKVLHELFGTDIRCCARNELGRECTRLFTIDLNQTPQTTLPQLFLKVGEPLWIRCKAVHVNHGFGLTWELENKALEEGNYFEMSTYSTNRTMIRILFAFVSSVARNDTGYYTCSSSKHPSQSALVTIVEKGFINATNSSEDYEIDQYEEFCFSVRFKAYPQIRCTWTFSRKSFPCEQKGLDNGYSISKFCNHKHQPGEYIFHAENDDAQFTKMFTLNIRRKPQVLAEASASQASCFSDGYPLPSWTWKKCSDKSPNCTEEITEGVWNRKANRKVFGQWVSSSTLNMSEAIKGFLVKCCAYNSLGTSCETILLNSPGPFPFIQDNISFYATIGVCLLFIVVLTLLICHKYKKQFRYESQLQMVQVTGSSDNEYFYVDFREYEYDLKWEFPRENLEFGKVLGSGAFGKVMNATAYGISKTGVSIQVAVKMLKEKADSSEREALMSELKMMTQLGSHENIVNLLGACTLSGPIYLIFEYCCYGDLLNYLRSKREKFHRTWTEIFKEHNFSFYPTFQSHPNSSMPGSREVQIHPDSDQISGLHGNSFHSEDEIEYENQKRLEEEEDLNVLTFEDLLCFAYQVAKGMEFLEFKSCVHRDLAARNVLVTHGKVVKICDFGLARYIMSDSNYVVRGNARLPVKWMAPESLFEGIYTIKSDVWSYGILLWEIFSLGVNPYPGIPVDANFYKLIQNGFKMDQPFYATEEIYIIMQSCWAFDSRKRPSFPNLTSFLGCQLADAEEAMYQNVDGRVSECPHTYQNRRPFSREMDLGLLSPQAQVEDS

Chain of Protein kinase C theta type (Homo sapiens) (Q04759 whole entry, looked up, the tested form may be a part): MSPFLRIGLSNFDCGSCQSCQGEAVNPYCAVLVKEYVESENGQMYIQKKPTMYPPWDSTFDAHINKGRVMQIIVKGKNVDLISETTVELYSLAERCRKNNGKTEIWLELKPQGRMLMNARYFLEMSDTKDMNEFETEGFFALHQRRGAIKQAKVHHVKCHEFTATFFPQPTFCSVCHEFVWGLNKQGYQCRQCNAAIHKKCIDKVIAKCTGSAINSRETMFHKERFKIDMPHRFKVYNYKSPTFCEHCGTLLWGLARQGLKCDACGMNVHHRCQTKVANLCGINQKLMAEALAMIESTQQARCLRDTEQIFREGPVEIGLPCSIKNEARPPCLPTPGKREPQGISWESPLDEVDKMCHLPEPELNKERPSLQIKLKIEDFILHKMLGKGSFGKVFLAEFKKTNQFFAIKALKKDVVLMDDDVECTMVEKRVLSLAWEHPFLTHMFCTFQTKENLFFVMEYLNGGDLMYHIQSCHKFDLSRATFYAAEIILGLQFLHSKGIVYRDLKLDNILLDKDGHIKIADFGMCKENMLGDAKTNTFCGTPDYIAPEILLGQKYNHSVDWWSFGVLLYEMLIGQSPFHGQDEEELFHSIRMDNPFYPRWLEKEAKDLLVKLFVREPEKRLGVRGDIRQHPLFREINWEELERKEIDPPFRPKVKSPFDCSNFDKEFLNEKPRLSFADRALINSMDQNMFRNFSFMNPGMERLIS
Chain of Ribosomal protein S6 kinase alpha-3 (Homo sapiens) (P51812 whole entry, the tested form may be a part): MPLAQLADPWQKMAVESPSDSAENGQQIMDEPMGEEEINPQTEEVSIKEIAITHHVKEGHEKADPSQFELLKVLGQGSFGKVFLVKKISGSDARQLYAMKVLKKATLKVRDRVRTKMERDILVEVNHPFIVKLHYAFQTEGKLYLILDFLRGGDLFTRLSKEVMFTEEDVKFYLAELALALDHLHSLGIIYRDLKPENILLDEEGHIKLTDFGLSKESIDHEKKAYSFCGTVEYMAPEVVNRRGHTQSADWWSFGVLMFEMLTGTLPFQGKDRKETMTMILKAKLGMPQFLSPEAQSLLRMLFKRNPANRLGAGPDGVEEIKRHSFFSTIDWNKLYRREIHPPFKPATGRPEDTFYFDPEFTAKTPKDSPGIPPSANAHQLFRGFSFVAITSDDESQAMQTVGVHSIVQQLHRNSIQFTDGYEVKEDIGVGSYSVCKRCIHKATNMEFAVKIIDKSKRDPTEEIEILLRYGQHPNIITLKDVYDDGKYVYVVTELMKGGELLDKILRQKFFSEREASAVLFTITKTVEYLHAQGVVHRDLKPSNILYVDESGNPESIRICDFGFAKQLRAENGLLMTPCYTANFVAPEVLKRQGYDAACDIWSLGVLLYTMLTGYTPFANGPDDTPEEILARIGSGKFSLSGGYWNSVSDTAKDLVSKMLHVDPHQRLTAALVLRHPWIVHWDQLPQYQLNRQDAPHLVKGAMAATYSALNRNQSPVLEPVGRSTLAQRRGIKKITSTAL
Chain of Fibroblast growth factor receptor 4 (Homo sapiens) (P22455 22-802 limits assumed): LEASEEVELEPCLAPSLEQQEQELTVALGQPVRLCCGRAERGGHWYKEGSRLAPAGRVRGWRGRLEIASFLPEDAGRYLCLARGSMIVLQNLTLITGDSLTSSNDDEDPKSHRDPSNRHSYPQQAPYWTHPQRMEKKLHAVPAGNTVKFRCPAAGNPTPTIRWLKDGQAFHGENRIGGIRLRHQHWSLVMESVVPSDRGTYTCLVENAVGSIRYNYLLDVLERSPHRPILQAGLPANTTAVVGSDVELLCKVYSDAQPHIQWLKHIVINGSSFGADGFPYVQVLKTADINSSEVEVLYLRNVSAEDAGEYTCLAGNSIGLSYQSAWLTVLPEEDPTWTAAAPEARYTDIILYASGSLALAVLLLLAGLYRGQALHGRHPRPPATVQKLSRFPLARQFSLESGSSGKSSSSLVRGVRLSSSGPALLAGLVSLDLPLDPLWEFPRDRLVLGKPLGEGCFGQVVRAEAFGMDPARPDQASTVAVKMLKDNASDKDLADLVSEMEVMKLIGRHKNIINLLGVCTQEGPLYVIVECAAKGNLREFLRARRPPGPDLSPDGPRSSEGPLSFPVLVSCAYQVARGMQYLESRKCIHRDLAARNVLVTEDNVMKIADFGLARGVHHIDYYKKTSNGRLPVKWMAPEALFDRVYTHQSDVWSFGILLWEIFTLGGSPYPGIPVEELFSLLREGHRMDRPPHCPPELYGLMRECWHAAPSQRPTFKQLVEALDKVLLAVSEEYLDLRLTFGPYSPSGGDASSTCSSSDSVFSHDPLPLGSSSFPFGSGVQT
Chain of Tyrosine-protein kinase Lyn (Homo sapiens) (P07948 2-512 limits assumed): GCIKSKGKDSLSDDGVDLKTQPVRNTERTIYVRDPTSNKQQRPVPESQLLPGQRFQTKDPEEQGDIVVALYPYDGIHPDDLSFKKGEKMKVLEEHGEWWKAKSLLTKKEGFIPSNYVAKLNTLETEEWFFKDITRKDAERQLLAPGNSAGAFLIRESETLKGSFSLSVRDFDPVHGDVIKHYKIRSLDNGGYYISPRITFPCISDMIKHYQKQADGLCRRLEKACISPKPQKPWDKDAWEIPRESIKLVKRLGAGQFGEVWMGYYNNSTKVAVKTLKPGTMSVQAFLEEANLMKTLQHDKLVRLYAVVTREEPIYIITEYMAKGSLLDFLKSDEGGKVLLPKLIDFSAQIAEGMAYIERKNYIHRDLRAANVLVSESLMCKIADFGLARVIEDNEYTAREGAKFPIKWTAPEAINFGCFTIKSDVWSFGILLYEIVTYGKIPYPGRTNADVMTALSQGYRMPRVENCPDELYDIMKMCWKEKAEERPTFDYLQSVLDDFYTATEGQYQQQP
Chain of Vascular endothelial growth factor receptor 2 (Homo sapiens) (P35968 whole entry, the tested form may be a part): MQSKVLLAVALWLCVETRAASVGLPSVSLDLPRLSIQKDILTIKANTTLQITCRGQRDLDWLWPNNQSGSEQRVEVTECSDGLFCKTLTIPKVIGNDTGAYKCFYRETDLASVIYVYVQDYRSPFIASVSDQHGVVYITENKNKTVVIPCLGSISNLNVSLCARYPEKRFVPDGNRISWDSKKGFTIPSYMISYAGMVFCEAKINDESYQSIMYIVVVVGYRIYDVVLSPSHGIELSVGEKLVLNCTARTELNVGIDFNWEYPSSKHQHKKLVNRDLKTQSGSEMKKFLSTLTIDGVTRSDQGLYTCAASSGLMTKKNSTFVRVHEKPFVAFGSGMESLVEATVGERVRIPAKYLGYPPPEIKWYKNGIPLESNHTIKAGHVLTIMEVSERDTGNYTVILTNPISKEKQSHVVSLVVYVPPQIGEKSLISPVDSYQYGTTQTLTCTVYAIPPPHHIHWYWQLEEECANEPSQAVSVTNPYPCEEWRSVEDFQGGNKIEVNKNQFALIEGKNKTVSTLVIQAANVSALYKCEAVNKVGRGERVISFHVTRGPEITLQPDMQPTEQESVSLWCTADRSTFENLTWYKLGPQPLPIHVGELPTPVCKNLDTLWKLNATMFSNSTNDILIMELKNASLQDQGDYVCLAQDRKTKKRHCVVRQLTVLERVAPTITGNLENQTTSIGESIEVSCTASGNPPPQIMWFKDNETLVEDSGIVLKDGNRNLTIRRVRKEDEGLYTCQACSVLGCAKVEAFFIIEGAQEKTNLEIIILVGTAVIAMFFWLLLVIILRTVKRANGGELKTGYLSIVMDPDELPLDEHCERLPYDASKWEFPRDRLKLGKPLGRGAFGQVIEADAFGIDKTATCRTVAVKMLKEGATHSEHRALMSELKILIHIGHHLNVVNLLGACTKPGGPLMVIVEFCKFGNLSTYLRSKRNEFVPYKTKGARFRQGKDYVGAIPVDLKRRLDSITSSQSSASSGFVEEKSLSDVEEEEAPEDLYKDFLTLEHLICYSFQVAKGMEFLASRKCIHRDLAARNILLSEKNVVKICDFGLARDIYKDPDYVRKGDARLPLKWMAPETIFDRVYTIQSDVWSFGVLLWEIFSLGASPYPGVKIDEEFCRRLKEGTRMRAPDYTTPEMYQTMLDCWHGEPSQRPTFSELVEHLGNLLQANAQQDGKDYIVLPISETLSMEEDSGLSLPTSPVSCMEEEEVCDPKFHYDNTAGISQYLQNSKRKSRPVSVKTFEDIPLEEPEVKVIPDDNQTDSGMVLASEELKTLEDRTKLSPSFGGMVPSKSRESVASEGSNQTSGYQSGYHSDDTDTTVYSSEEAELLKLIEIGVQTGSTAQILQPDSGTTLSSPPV

Compound `NCC1CCN(c2ncnc3[nH]ccc23)CC1` has an inhibition [1] of 27.5% and an inhibition [2] of 87.5%.

Work on `NC1CCN(c2ncnc3[nH]ccc23)CC1` yielded an inhibition [3] of 0%.

For `c1cnc2[nH]ccc2c1`, the inhibition [4] was 31.5%.

Work on `NC1(Cc2ccc(Cl)cc2)CCN(c2ncnc3[nH]ccc23)CC1` yielded an inhibition [5] of 0.5% and an inhibition [6] of 4.5%.

`C[C@H](CN(C)C)Oc1nc(Nc2cc3cccc(Cl)c3cn2)cnc1C#N` was tested, and the inhibition [7] was 2% and the inhibition [8] was 27%.
